Test results as given in the supplement of paper PMC8671470.

How the values were obtained:
Settings in all cases: 72 h
[1] = test system: ML-2
How it was run: (§1)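 Fifteen myeloid leukaemia cell lines were seeded in RPMI 1640 at a density titrated to the linear growth range. Each line went into 384-well plates with compounds acoustically pre-printed at five tenfold doses from 1 to 10,000 nM, in duplicate, and was incubated for 72 h at 37 °C with 5% CO2. Luminescent ATP viability was normalised to vehicle and to a positive control at 10 µM. The IC50 came from four-parameter log-logistic dose–response fits.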

[2] = test system: Mono-Mac-6
How it was run: as §1

[3] = test system: THP-1
How it was run: as §1

[4] = test system: K-562
How it was run: as §1

[5] = test system: KCL-22
How it was run: as §1

[6] = test system: LAMA-84
How it was run: as §1

[7] = test system: SHI-1
How it was run: as §1

[8] = test system: KU-812
How it was run: as §1

[9] = test system: MV4-11
How it was run: as §1

[10] = test system: HL-60
How it was run: as §1

[11] = test system: MOLM-13
How it was run: as §1

[12] = test system: KG-1
How it was run: as §1

[13] = test system: NOMO-1
How it was run: as §1

[14] = test system: HEL
How it was run: as §1

[15] = test system: BV-173
How it was run: as §1

[16] = test system: ML-2; assay: cell viability (% survival relative to DMSO control, bortezomib = 0%); higher = less cytotoxic
How it was run: (§2)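 Fifteen myeloid leukaemia cell lines were exposed to compounds at 1, 10, 100, 1000 or 10000 nM in 384-well plates for 72 h at 37 °C and 5% CO2. Viability was read by CellTiter-Glo luminescence and normalised, with vehicle as 100% and a 10 µM positive control as 0%. Values are percent survival averaged over duplicates.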

[17] = test system: Mono-Mac-6; assay: as above
How it was run: as §2

[18] = test system: THP-1; assay: as above
How it was run: as §2

[19] = test system: K-562; assay: as above
How it was run: as §2

[20] = test system: KCL-22; assay: as above
How it was run: as §2

[21] = test system: LAMA-84; assay: as above
How it was run: as §2

[22] = test system: SHI-1; assay: as above
How it was run: as §2

[23] = test system: KU-812; assay: as above
How it was run: as §2

[24] = test system: MV4-11; assay: as above
How it was run: as §2

[25] = test system: HL-60; assay: as above
How it was run: as §2

[26] = test system: MOLM-13; assay: as above
How it was run: as §2

[27] = test system: KG-1; assay: as above
How it was run: as §2

[28] = test system: NOMO-1; assay: as above
How it was run: as §2

[29] = test system: HEL; assay: as above
How it was run: as §2

[30] = test system: BV-173; assay: as above
How it was run: as §2

CCc1c(C(=O)C(N)=O)c2c(OCC(=O)O)cccc2n1Cc1ccccc1 [Varespladib]
Settings | IC50 (cell viability) [µM]
[1] | > 10
[2] | > 10
[3] | > 10
[4] | > 10
[5] | > 10
[6] | > 10
[7] | > 10
[8] | > 10
[9] | > 10
[10] | > 10
[11] | > 10
[12] | > 10
[13] | > 10
[14] | > 10
[15] | > 10

cell viability [%]
Settings | 1 nM | 10 nM | 100 nM | 1000 nM | 10000 nM
[16] | 105 | 105 | 109 | 104 | 89.7
[17] | 99.1 | 101 | 93.7 | 100 | 89
[18] | 103 | 105 | 100 | 97.4 | 96.9
[19] | 98.5 | 97.5 | 110 | 92.4 | 99.9
[20] | 91.2 | 107 | 105 | 102 | 96.5
[21] | 95.6 | 100 | 103 | 101 | 81.3
[22] | 106 | 99 | 106 | 92.9 | 93.4
[23] | 96.1 | 97.7 | 98.5 | 97.6 | 86.4
[24] | 88.4 | 109 | 101 | 88.3 | 98.5
[25] | 98.8 | 101 | 92.8 | 96.2 | 93.2
[26] | 80.7 | 95.3 | 85.8 | 101 | 118
[27] | 99.5 | 96.9 | 99.4 | 95.9 | 94
[28] | 102 | 91.6 | 101 | 115 | 95.2
[29] | 94.8 | 111 | 99.2 | 109 | 87.6
[30] | 90.6 | 104 | 85.4 | 99.3 | 88.7

CN(CCOc1ccc(Cc2sc(O)nc2O)cc1)c1ccccn1 [Rosiglitazone]
Settings | IC50 (cell viability) [µM]
[1] | > 10
[2] | 0.0852
[3] | > 10
[4] | > 10
[5] | > 10
[6] | > 10
[7] | > 10
[8] | > 10
[9] | > 10
[10] | > 10
[11] | > 10
[12] | > 10
[13] | > 10
[14] | > 10
[15] | > 10

cell viability [%]
Settings | 1 nM | 10 nM | 100 nM | 1000 nM | 10000 nM
[16] | 106 | 108 | 95.6 | 120 | 115
[17] | 95.9 | 92.6 | 54.5 | 25.2 | 24.8
[18] | 101 | 101 | 88.6 | 90.6 | 93.5
[19] | 96.6 | 109 | 98.5 | 98.7 | 85.4
[20] | 96.4 | 113 | 110 | 94.2 | 102
[21] | 99.3 | 106 | 100 | 95.6 | 97.4
[22] | 102 | 123 | 111 | 116 | 103
[23] | 98.9 | 111 | 92.5 | 95.4 | 90.3
[24] | 107 | 105 | 105 | 95 | 93.5
[25] | 97.8 | 111 | 107 | 127 | 168
[26] | 107 | 115 | 118 | 130 | 122
[27] | 91.4 | 110 | 94.3 | 101 | 91.2
[28] | 109 | 107 | 97.8 | 105 | 102
[29] | 110 | 110 | 113 | 110 | 91.9
[30] | 96.7 | 101 | 81 | 97.7 | 101

CCc1oc2ccccc2c1C(=O)c1cc(Br)c(O)c(Br)c1 [Benzbromarone]
Settings | IC50 (cell viability) [µM]
[1] | > 10
[2] | > 10
[3] | > 10
[4] | > 10
[5] | > 10
[6] | > 10
[7] | > 10
[8] | > 10
[9] | > 10
[10] | > 10
[11] | > 10
[12] | > 10
[13] | > 10
[14] | > 10
[15] | > 10

cell viability [%]
Settings | 1 nM | 10 nM | 100 nM | 1000 nM | 10000 nM
[16] | 99.6 | 96.6 | 109 | 93.4 | 109
[17] | 102 | 95.3 | 106 | 102 | 126
[18] | 105 | 95.7 | 112 | 101 | 86.3
[19] | 117 | 94.6 | 103 | 97.7 | 103
[20] | 108 | 90.7 | 91.5 | 90.2 | 124
[21] | 103 | 98.7 | 96.3 | 96.1 | 107
[22] | 104 | 86 | 104 | 103 | 117
[23] | 100 | 95.2 | 97.9 | 87.4 | 104
[24] | 107 | 100 | 97 | 91.2 | 118
[25] | 88.5 | 88.1 | 136 | 94.1 | 104
[26] | 101 | 101 | 91.3 | 90.8 | 136
[27] | 95.7 | 97.7 | 102 | 94.1 | 102
[28] | 95.1 | 103 | 94.8 | 93.9 | 109
[29] | 92.3 | 101 | 101 | 89.8 | 122
[30] | 106 | 94.1 | 117 | 95.9 | 127
